The results in this text go back to US9670214B2, “Small molecule myristate inhibitors of Bcr-abl and methods of use” (DANA-FARBER CANCER INSTITUTE, INC., priority 2007, dated 2017).

Bounds are passed on as bounds.

The assay concerns Ba/F3 cells (IL-3 dependent murine pro-B cell line). Put plainly: Proliferation assay (MTT), parental Ba/F3 cells. Format: cell-based. To be noted: Mus musculus, 48 h, drug concentrations 0.005-10 μM, read-out: BaF3. The protocol: Interleukin-3 (IL-3) dependent murine pro-B cell line, Ba/F3, and murine myeloid precursor cell line, 32D, were maintained in RPMI-1640 medium supplemented with L-Glutamine, 10% FBS and 10 U/ml recombinant murine IL-3 (Roche). Mo7e human megakarioblastic cell line was grown in RPMI-1640 medium supplemented with L-Glutamine, 20% FBS and 5 ng/ml recombinant human granulocyte macrophage cell stimulating factor (GM-CSF) (R&D Systems) or 200 ng/ml stem cell factor (SCF) (Biosource).
Cells (0.3-0.6×10^6/ml) were plated in duplicate or triplicate in 96-well plates containing increasing drug concentrations (0.005-10 μM). After incubation at 37° C. in 5% CO2 for 48 h, the effect of the compounds on cell viability was determined by MTT (Promega) colorimetric dye reduction method. Inhibition of cell proliferation was calculated as a percentage of growth of DMSO treated cells, and IC50 values were determined with Microsoft Excel XLfit3.
`FC(F)(F)Oc1ccc(Nc2ncnc3c2cnn3Cc2ccccc2)cc1`: the IC50 is > 10 µM.

In the case of `CCCCS(=O)(=O)Nc1ccc(-c2cc(Nc3ccc(OC(F)(F)F)cc3)ncn2)cc1`, the IC50 stood at 8.92 µM.

Regarding `FC(F)(F)Oc1ccc(Nc2ncnc3nn(-c4cc(C(F)(F)F)ccn4)cc23)cc1`, the IC50 was > 10 µM. `FC(F)(F)Oc1ccc(Nc2ncnc3c2cnn3CCc2ccccc2)cc1`: the IC50 was > 10 µM. Take `CCCCn1cc2c(Nc3ccc(OC(F)(F)F)cc3)ncnc2n1`: the IC50 is > 10 µM. As to `CCc1ccccc1-n1cc2c(Nc3ccc(OC(F)(F)F)cc3)ncnc2n1`, the IC50 was > 10 µM. Regarding `CCn1cc2c(Nc3ccc(OC(F)(F)F)cc3)ncnc2n1`, the IC50 was > 10 µM. With `Cc1cccc(-n2cc3c(Nc4ccc(OC(F)(F)F)cc4)ncnc3n2)c1C` the figure was > 10 µM. With `Cn1c(C(=O)N2CCC(Br)CC2)cc2c(Nc3ccc(OC(F)(F)F)cc3)ncnc21` the figure was > 10 µM. Take `FC(F)(F)Oc1ccc(Nc2ncnc3c2cnn3Cc2ccncc2)cc1`: the IC50 is > 10 µM.

`Cc1c(Nc2ccc(OC(F)(F)F)cc2)ncnc1-c1cnn(C)c1`: the IC50 was > 10 µM.

Consider `CCNC(=O)c1cc2c(Nc3ccc(OC(F)(F)F)cc3)ncnc2n1C`, for which the IC50 was 5.37 µM. Consider `FC(F)(F)Cn1ncc2c(Nc3ccc(OC(F)(F)F)cc3)ncnc21`, for which the IC50 is > 10 µM.

For the molecule `CN(C)CC(C#N)n1ncc2c(Nc3ccc(OC(F)(F)F)cc3)ncnc21` (stereo not shown), the IC50 was > 10 µM. In the case of `O=C(c1cc2c(Nc3ccc(OC(F)(F)F)cc3)ncnc2s1)N1CCN(N2CCCC2)CC1`, the IC50 was 5.77 µM. Take `CCOC(=O)C1CCCN(C(=O)c2cc3c(Nc4ccc(OC(F)(F)F)cc4)ncnc3n2C)C1` (stereo not shown): the IC50 was > 10 µM. Consider `Fc1ccccc1-n1ncc2c(Nc3ccc(OC(F)(F)F)cc3)ncnc21`, for which the IC50 was > 10 µM.

In the case of `FC(F)(F)Oc1ccc(Nc2ncnc3nn(Cc4ccccc4)cc23)cc1`, the IC50 is > 10 µM.

As to `NCCn1ncc2c(Nc3ccc(OC(F)(F)F)cc3)ncnc21`, the IC50 is > 10 µM.

As for `COc1ccc(Cn2ccc3c(Nc4ccc(OC(F)(F)F)cc4)ncnc32)cc1`, the IC50 was > 10 µM. Consider `FC(F)(F)Oc1ccc(Nc2ncnc3c2cnn3-c2ccc(Cl)cc2Cl)cc1`, for which the IC50 is > 10 µM. Consider `O=C1c2ccccc2C(=O)N1CCn1ncc2c(Nc3ccc(OC(F)(F)F)cc3)ncnc21`, for which the IC50 is > 10 µM.

`FC(F)(F)Cn1cc2c(Nc3ccc(OC(F)(F)F)cc3)ncnc2n1`: the IC50 came to 8 µM. As for `FC(F)(F)Oc1ccc(Nc2ncnc3nn(Cc4cccc(Br)c4)cc23)cc1`, the IC50 was > 10 µM. For `OCCn1ccc2c(Nc3ccc(OC(F)(F)F)cc3)ncnc21`, the IC50 is > 10 µM. In the case of `O=C(c1ccc2c(Nc3ccc(OC(F)(F)F)cc3)ncnc2c1)N1CCCC(CO)C1` (stereo not shown), the IC50 is > 10 µM. With `FC(F)(F)Oc1ccc(Nc2ncnc3[nH]ncc23)cc1` the figure was > 10 µM; with `NC(=O)Cn1ncc2c(Nc3ccc(OC(F)(F)F)cc3)ncnc21`, > 10 µM. On to `FC(F)(F)Oc1ccc(Nc2ncnc3c2ncn3CCN2CCOCC2)cc1`, for which the IC50 is > 10 µM. Consider `O=C(c1ccc2c(Nc3ccc(OC(F)(F)F)cc3)ncnc2c1)N1CCC(O)CC1`, for which the IC50 was > 10 µM. Regarding `COC[C@H]1CCCN1C(=O)c1cc2c(Nc3ccc(OC(F)(F)F)cc3)ncnc2n1C`, the IC50 is > 10 µM. As to `Cc1c(Nc2ccc(OC(F)(F)F)cc2)ncnc1-c1cnn(Cc2ccccc2)c1`, the IC50 is 9.9 µM. On to `CC(C)S(=O)(=O)c1ccc(-c2cc(Nc3ccc(OC(F)(F)F)cc3)ncn2)cc1`, for which the IC50 is > 10 µM. As for `Cc1c(Nc2ccc(OC(F)(F)F)cc2)ncnc1-c1ccc(S(N)(=O)=O)cc1`, the IC50 is > 10 µM. Turning to `FC(F)(F)Oc1ccc(Nc2ncnc3nn(CC4CCOC4)cc23)cc1` (stereo not shown), the IC50 is > 10 µM. Regarding `FC(F)(F)Oc1ccc(Nc2cc(-c3cnn(Cc4cccnc4)c3)ncn2)cc1`, the IC50 is > 10 µM. In the case of `FC(F)(F)Oc1ccc(Nc2ncnc3c2cnn3CC2CCOC2)cc1` (stereo not shown), the IC50 was > 10 µM. As for `O=C1Cc2c(ncnc2Nc2ccc(OC(F)(F)F)cc2)N1`, the IC50 was > 10 µM. Consider `OCc1cc2c(Nc3ccc(OC(F)(F)F)cc3)ncnc2s1`, for which the IC50 was > 10 µM.

`COC1CCN(C(=O)c2cc3c(Nc4ccc(OC(F)(F)F)cc4)ncnc3s2)CC1`: the IC50 is > 10 µM.

On to `CC(C)(C)n1ncc2c(Nc3ccc(OC(F)(F)F)cc3)ncnc21`, for which the IC50 was found to be 7.3 µM. `Fc1ccccc1-n1cc2c(Nc3ccc(OC(F)(F)F)cc3)ncnc2n1`: the IC50 is > 10 µM. For the molecule `Cc1cccc(-n2ncc3c(Nc4ccc(OC(F)(F)F)cc4)ncnc32)c1C`, the IC50 is > 10 µM. `NC(=O)C1CCN(C(=O)c2ccc3c(Nc4ccc(OC(F)(F)F)cc4)ncnc3c2)CC1`: the IC50 is > 10 µM.

As for `CN1C(=O)Cc2c(Nc3ccc(OC(F)(F)F)cc3)ncnc21`, the IC50 was > 10 µM. Regarding `FC(F)(F)Oc1ccc(Nc2ncnc3c2cnn3Cc2ccccn2)cc1`, the IC50 was > 10 µM. Regarding `COCCCNC(=O)c1ccc(-c2ncnc(Nc3ccc(OC(F)(F)F)cc3)c2C)cc1`, the IC50 was determined as 3.11 µM. For the molecule `OCCn1ncc2c(Nc3ccc(OC(F)(F)F)cc3)ncnc21` [2-(4-(4-(trifluoromethoxy)phenylamino)-1H-pyrazolo[3,4-d]pyrimidin-1-yl)ethanol], the IC50 was > 10 µM.

For `FC(F)(F)Oc1ccc(Nc2ncnc3c2cnn3-c2cc(C(F)(F)F)ccn2)cc1`, the IC50 was > 10 µM.

For `CCOC(=O)Cc1cnc(NC(=O)c2ccc3c(Nc4ccc(OC(F)(F)F)cc4)ncnc3c2)s1`, the IC50 is > 10 µM. Regarding `FC(F)(F)Oc1ccc(Nc2ncnc3nn(-c4ccc(Cl)cc4Cl)cc23)cc1`, the IC50 is > 10 µM.

Take `FC(F)(F)Oc1ccc(Nc2ncnc3nn(C4CCCCC4)cc23)cc1`: the IC50 is > 10 µM. For the molecule `CCc1ccccc1-n1ncc2c(Nc3ccc(OC(F)(F)F)cc3)ncnc21`, the IC50 was > 10 µM. The same measure for `FC(F)(F)Oc1ccc(Nc2ncnc3nn(Cc4cccnc4)cc23)cc1`: 2.1 µM; for `Fc1cc(Cn2cc3c(Nc4ccc(OC(F)(F)F)cc4)ncnc3n2)ccc1C(F)(F)F`: 4.6 µM.

Take `Cn1c(C(=O)N2CCC3(CC2)C(=O)NCN3c2ccccc2)cc2c(Nc3ccc(OC(F)(F)F)cc3)ncnc21`: the IC50 was > 10 µM. Turning to `NS(=O)(=O)c1cccc(-n2ncc3c(Nc4ccc(OC(F)(F)F)cc4)ncnc32)c1`, the IC50 was 1.8 µM. With `CCS(=O)(=O)n1ncc2c(Nc3ccc(OC(F)(F)F)cc3)ncnc21` the figure was 7 µM; with `NC(=O)CCn1ncc2c(Nc3ccc(OC(F)(F)F)cc3)ncnc21`, 8.7 µM; with `Cn1cc(-c2cc(Nc3ccc(OC(F)(F)F)cc3)ncn2)cn1`, > 10 µM. The same measure for `CC(C)S(=O)(=O)Nc1ccc(-c2cc(Nc3ccc(OC(F)(F)F)cc3)ncn2)cc1`: 6.93 µM; for `CN(C)C1CCN(C(=O)c2ccc3c(Nc4ccc(OC(F)(F)F)cc4)ncnc3c2)C1` (stereo not shown): > 10 µM. With `FC(F)(F)Oc1ccc(Nc2ncnc3nn(CCc4ccccc4)cc23)cc1` the figure was > 10 µM.

With `CCCCn1ncc2c(Nc3ccc(OC(F)(F)F)cc3)ncnc21`, the IC50 worked out at 6.6 µM. With `O=Cc1cnc2c(ccn2CCN2CCOCC2)c1Nc1ccc(OC(F)(F)F)cc1Br` the figure was > 10 µM; with `FC(F)(F)Oc1ccc(Nc2ncnc3c2cnn3C2CCCCC2)cc1`, 9.3 µM; with `CCn1ncc2c(Nc3ccc(OC(F)(F)F)cc3)ncnc21`, > 10 µM.
